We go through 13 molecules from PubChem BioAssay (NCI).

Holding throughout (test): growth of human tumour cells (NCI), 48 h
Test [1] has as its system A498 renal.
In test [2] the test system is CAKI-1 renal.
Test [3] concerns MOLT-4 leukemia.
For test [4], the system named is CCRF-CEM leukemia.
The test system of test [5] is UACC-257 melanoma.
The test system of test [6] is 786-0 renal.
Test [7] deals with TK-10 renal.
The subject of test [8] is HCT-116 colon.
Test [9] deals with SW-620 colon.

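1) Cells in 96-well plates. 2) Compound, 48 h, 5 concentrations. 3) Linear interpolation between surrounding doses. 4) Unreached endpoint = highest concentration. Here, GI50 denotes the concentration required for 50% inhibition of growth. The concentration for full growth arrest is given as TGI.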

Take `CCCCCCC(O)C/C=C/CCCCCC/C(C(=O)OC)=C(/O)C(=O)OCC` (stereo unspecified): the TGI in test [1], in test [2], in [3], in test [4], in test [5] and in [6] was greater than 100 µM throughout. Further, the TGI in test [7], in test [8] and in test [9] was greater than 100 µM throughout.

As to `O=C(Nc1ccccc1)O/N=C1/CCCC/C1=C\c1ccccc1`, the TGI amounted to 53.6 µM in test [1]; 29.2 µM in test [2]; 26.5 µM in test [3]; 33.1 µM in test [4]; 35.1 µM in test [5]; 32.5 µM in test [6]. Besides, the TGI was 31.7 µM in test [7], 26.6 µM in test [8] and 29.9 µM in test [9].

On to `CC(=O)CC(=O)CCCC(=O)Nc1ccc(Cl)cc1Cl`, for which the TGI in test [2], in test [3], in test [5], in [6], in [7] and in test [8] was greater than 100 µM each time. The same molecule gave a TGI in test [9] greater than 100 µM.

For the molecule `O=[N+]([O-])c1ccc(OCCNc2cccc3ccccc23)cc1`, the TGI in test [1], in [2], in test [3], in test [4], in test [5] and in test [6] was greater than 100 µM throughout. Moreover, the TGI in test [7], in test [8] and in test [9] was greater than 100 µM each time.

Take `Cc1ccc2c(/C=C/C(=O)c3cc(CN4CCOCC4)c(O)c4nc(C)ccc34)cc(CN3CCOCC3)c(O)c2n1`: the GI50 in test [1] is 1800 nM; in test [2], 0.297 µM; in [3] it was 386 nM; in [4] it was 322 nM; in [5] it was 2620 nM; in [6], 1.4 µM. Also, the GI50 is 1.13 µM in [7], 412 nM in test [8] and 485 nM in [9]. The TGI in test [1] worked out at 3.37 µM; in test [2] it was 1.53 µM; in [3] it was 2.66 µM; in [4] it was 1.12 µM; in test [5], 13.6 µM; in test [6] it was 5.45 µM. Besides, the values for the TGI in test [7], in [8] and in [9] were 3.77 µM, 3.41 µM and 2.4 µM, respectively.

Turning to `CC1(c2ccccc2)CC12C(=O)NC(=O)NC2=O` (stereo unspecified), the TGI in test [2], in test [3], in test [4], in test [5], in test [6] and in [7] was greater than 100 µM throughout. The TGI in test [8] and in test [9] was greater than 100 µM in each case.

Regarding `O=C(Nc1cccc(C2=NCCN2)c1)c1ccc(OCCCOc2ccc(C(=O)Nc3cccc(C4=NCCN4)c3)cc2)cc1`, the GI50 in [1] is 2300 nM; in test [2] it was 4.67 µM; in test [3], 3860 nM; in test [4], 4000 nM; in test [6], 3.69 µM; in [7], 13.2 µM. In addition, the TGI in test [1] was 8.37 µM; in test [2], 84.6 µM; in test [3], greater than 100 µM; in test [4], greater than 100 µM; in test [6] it was greater than 100 µM; in test [7], 35.3 µM.

For `CC1=C2C(=CC(C)(CO)C2O)C(=O)C(C)(O)C12CC2` (stereo unspecified), the TGI amounted to 0.0204 µM in [1]; 0.0183 µM in test [2]; 0.0104 µM in [3]; 0.0686 µM in test [4]; 0.00867 µM in test [5]; 0.014 µM in test [6]. Also, the figures for the TGI in test [7], in test [8] and in test [9] were 0.0233 µM, 0.0478 µM and 0.0585 µM, respectively. In addition, the GI50 in test [4] was 1.72 nM.

`NC(=O)c1csc(C2O[C@@H](COP(=O)(O)OP(=O)(O)OC[C@H]3OC(n4cnc5c(N)ncnc54)[C@H](O)[C@@H]3O)[C@H](O)[C@@H]2O)n1` (stereo partly specified): the TGI in test [1], in test [2], in [3], in test [4], in [5] and in test [6] was greater than 100 µM in each case. For the same molecule, the TGI in [7] and in test [9] was greater than 100 µM each time.

Regarding `CC(C)(C)C(=O)Nc1ccccc1Br`, the TGI in [2], in test [3], in test [4], in test [5], in [6] and in [7] was greater than 100 µM throughout. For the same molecule, the TGI in [8] and in test [9] was greater than 100 µM throughout.

`COC(=O)C(=O)C(C(=O)C(=O)Nc1ccc([N+](=O)[O-])cc1[N+](=O)[O-])c1nc2ccc([N+](=O)[O-])cc2[nH]c1=O` (stereo unspecified): the TGI in test [1], in test [2], in test [3], in test [4], in test [5] and in test [6] was greater than 100 µM each time. In addition, the TGI in test [7], in [8] and in [9] was greater than 100 µM each time.

Turning to `O=C1C(c2ccc(Cl)cc2)=[N+]([O-])c2ccccc21`, the TGI in [1] was 86.9 µM; in test [3], greater than 100 µM; in test [4] it was 25.5 µM; in [5] it was 30.3 µM; in test [6], 30.7 µM; in test [7] it was 30.1 µM. The TGI in [8] came out at 27.8 µM; in [9], 62.1 µM.

For `COc1ccc(-c2nc3sccn3c2/C=C/C(=O)c2cc(OC)c(OC)c(OC)c2)cc1OC`, the GI50 is 2600 nM in test [1]; 3.01 µM in test [2]; 2070 nM in [3]; 2640 nM in [4]; 2650 nM in test [5]; 3.36 µM in [6]. Also, the GI50 was 4.8 µM in [7] and 2310 nM in test [8]. The TGI is 8.2 µM in test [1]; greater than 100 µM in [2]; 6.47 µM in test [3]; greater than 100 µM in [4]; 7.17 µM in [5]; 20.4 µM in test [6]. The TGI in test [7] is greater than 100 µM; in test [8], 6.44 µM.
